Reference: US20090285774A1, “Hepatitis C Virus Inhibitors” (Bristol-Myers Squibb Company, priority 2008, published 2009)
Read-outs that look alike come from different tables or passages of the source.

What was measured:
[1] = target: porcine pancreatic elastase (PPE) (Sus scrofa, UniProt P00772); experiment: Specificity assay, porcine pancreatic elastase; format: biochemical; conditions: read-out: PPE activity in the specificity assays (IC50)
Protocol: (§1) The specificities of compounds of the present disclosure were determined against a variety of serine proteases: human neutrophil elastase (HNE), porcine pancreatic elastase (PPE) and human pancreatic chymotrypsin and one cysteine protease: human liver cathepsin B. In all cases a 96-well plate format protocol using a fluorometric Amino-Methyl-Coumarin (AMC) substrate specific for each enzyme was used as described previously (PCT Patent Application No. WO 00/09543) with some modifications to the serine protease assays. All enzymes were purchased from Sigma, EMDbiosciences while the substrates were from Bachem, Sigma and EMDbiosciences.
(§2) Compound concentrations varied from 100 to 0.4 μM depending on their potency. The enzyme assays were each initiated by addition of substrate to enzyme-inhibitor pre-incubated for 10 min at room temperature and hydrolysis to 15% conversion as measured on cytofluor. […]
(§3) The percentage of inhibition was calculated using the formula: […]

[2] = test system: human pancreatic chymotrypsin; experiment: Specificity assay, chymotrypsin; format: biochemical; conditions: read-out: Chymotrypsin activity in the specificity assays (IC50)
Protocol: as §1, §2, §3

[3] = target: T1, HCV NS3/4A protease complex, H77 strain (1a genotype) (Hepatitis C virus genotype 1a, UniProt P27958, C1454S/C1711G); experiment: FRET peptide assay to monitor HCV NS3/4A proteolytic activity (H77 strain); format: biochemical
T1 construct: DNA encoding the recombinant HCV NS3/4A protease complex (amino acids 1027 to 1711) for these strains; inferred from pET21b vector and Ni-NTA purification; made in house; host or cells: Escherichia coli BL21 (DE3), pET21b
Text: (§4) HCV NS3 protease complexes, derived from the BMS strain, H77 strain or J4L6S strain, were generated, as described below. These purified recombinant proteins were generated for use in a homogeneous assay (see below) to provide an indication of how effective compounds of the present disclosure would be in inhibiting HCV NS3 proteolytic activity.
(§5) Serum from an HCV-infected patient was obtained from Dr. T. Wright, San Francisco Hospital. An engineered full-length cDNA (compliment deoxyribonucleic acid) template of the HCV genome (BMS strain) was constructed from DNA fragments obtained by reverse transcription-PCR (RT-PCR) of serum RNA (ribonucleic acid) and using primers selected on the basis of homology between other genotype 1a strains. From the determination of the entire genome sequence, a genotype 1a was assigned to the HCV isolate according to the classification of Simmonds et al. (See P Simmonds, K A Rose, S Graham, S W Chan, F McOmish, B C Dow, E A Follett, P L Yap and H Marsdeni, J. Clin. Microbiol., 31(6):1493-1503 (1993)). […]

[4] = target: T2, HCV NS3/4A protease complex, BMS strain (genotype 1a) (UniProt P27958, species not given/STRAIN_BMS); experiment: FRET peptide assay to monitor HCV NS3/4A proteolytic activity (BMS strain); format: biochemical
T2 construct: DNA encoding the recombinant HCV NS3/4A protease complex (amino acids 1027 to 1711) for these strains [given for H77 and J4L6S only]; These are given only for the H77 and J4L6S constructs
Text: as §4
Serum from an HCV-infected patient was obtained from Dr. T. Wright, San Francisco Hospital. An engineered full-length cDNA (compliment deoxyribonucleic acid) template of the HCV genome (BMS strain) was constructed from DNA fragments obtained by reverse transcription-PCR (RT-PCR) of serum RNA (ribonucleic acid) and using primers selected on the basis of homology between other genotype 1a strains. From the determination of the entire genome sequence, a genotype 1a was assigned to the HCV isolate according to the classification of Simmonds et al. (See P Simmonds, K A Rose, S Graham, S W Chan, F McOmish, B C Dow, E A Follett, P L Yap and H Marsdeni, J. Clin. Microbiol., 31(6):1493-1503 (1993)). […] The infectious clones, H77 (1a genotype) and J4L6S (1b genotype) were obtained from R. Purcell (NIH) and the sequences are published in Genbank (AAB67036, see Yanagi, M., Purcell, R. H., Emerson, S. U. and Bukh, J. Proc. Natl. Acad. Sci. U.S.A. 94(16):8738-8743 (1997); AF054247, see Yanagi, M., St Claire, M., Shapiro, M., Emerson, S. U., Purcell, R. H. and Bukh, J, Virology 244 (1), 161-172. (1998)).
The H77 and J4L6S strains were used for production of recombinant NS3/4A protease complexes. DNA encoding the recombinant HCV NS3/4A protease complex (amino acids 1027 to 1711) for these strains were manipulated as described by P. Gallinari et al. (see Gallinari P, Paolini C, Breruian D, Nardi C, Steinlkuhler C, De Francesco R. Biochemistry. 38(17);5620-32, (1999)). Briefly, a three-lysine solubilizing tail was added at the 3′-end of the NS4A coding region. The cysteine in the P1 position of the NS4A-NS4B cleavage site (amino acid 1711) was changed to a glycine to avoid the proteolytic cleavage of the lysine tag. Furthermore, a cysteine to serine mutation was introduced by PCR at amino acid position 1454 to prevent the autolytic cleavage in the NS3 helicase domain. The variant DNA fragment was cloned in the pET21b bacterial expression vector (Novagen) and the NS3/4A complex was expressed in Escherichia. coli strain BL21 (DE3) (Invitrogen) following the protocol described by P. Gallinari et al. (see Gallinari P, Breinan D, Nardi C, Brunetti M, Tomei L, Steinkuhler C, De Francesco R., J Virol. 72(8):6758-69 (1998)) with modifications. Briefly, the NS3/4A protease complex expression was induced with 0.5 millimolar (mM) Isopropyl β-D-1-thiogalactopyranoside (IPTG) for 22 hours (h) at 20° C. A typical fermentation (1 Liter (L)) yielded approximately 10 grams (g) of wet cell paste. The cells were resuspended in lysis buffer (10 mL/g) consisting of 25 mM N-(2-Hydroxyethyl)Piperazine-N′-(2-Ethane Sulfonic acid) (HEPES), pH 7.5, 20% glycerol, 500 mM Sodium Chloride (NaCl), 0.5% Triton X-100, 1 microgram/milliliter (“μg/mL”) lysozyme, 5 mM Magnesium Chloride (MgCl2), 1 μg/ml DnaseI, 5mM β-Mercaptoethanol (βME), Protease inhibitor-Ethylenediamine Tetraacetic acid (EDTA) free (Roche), homogenized and incubated for 20 minutes (min) at 4° C. The homogenate was sonicated and clarified by ultra-centrifugation at 235000 g for 1 hour (h) at 4° C. Imidazole was added to the supernatant to a final concentration of 15 mM and the pH adjusted to 8.0. The crude protein extract was loaded on a Nickel-Nitrilotriacetic acid (Ni-NTA) column pre-equilibrated with buffer B (25 mM HEPES, pH 8.0, 20% glycerol, 500 mM NaCl, 0.5% Triton X-100, 15 mM imidazole, 5 mM βMB). The sample was loaded at a flow rate of 1 mL/min. The column was washed with 15 column volumes of buffer C (same as buffer B except with 0.2% Triton X-100). The protein was eluted with 5 column volumes of buffer D (same as buffer C except with 200 mM Imidazole). […]

[5] = target: T3, HCV NS3/4A protease complex, J4L6S strain (1b genotype) (Hepatitis C virus genotype 1b, UniProt O92972, C1454S/C1711G); experiment: FRET peptide assay to monitor HCV NS3/4A proteolytic activity (J4L6S strain); format: biochemical
T3 construct: DNA encoding the recombinant HCV NS3/4A protease complex (amino acids 1027 to 1711) for these strains; inferred from pET21b vector and Ni-NTA purification; made in house; host or cells: Escherichia coli BL21 (DE3), pET21b
Text: as §4, §5

[6] = target: T4, human neutrophil elastase (HNE) (Homo sapiens, UniProt P08246); experiment: Specificity assay, human neutrophil elastase; format: biochemical; conditions: read-out: HLE activity in the specificity assays (IC50)
T4 sequence (P08246 30-267): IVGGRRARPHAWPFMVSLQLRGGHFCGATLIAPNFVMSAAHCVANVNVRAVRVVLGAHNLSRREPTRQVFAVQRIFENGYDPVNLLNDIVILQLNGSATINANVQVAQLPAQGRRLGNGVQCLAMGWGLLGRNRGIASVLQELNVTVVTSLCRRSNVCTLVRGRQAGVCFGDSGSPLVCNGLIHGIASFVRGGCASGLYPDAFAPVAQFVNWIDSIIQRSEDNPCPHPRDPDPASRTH
Protocol: as §1, §2, §3

[7] = target: T5, human liver cathepsin B (Homo sapiens, UniProt P07858); experiment: Specificity assay, cathepsin B; format: biochemical; conditions: read-out: Cathepsin B activity in the specificity assays (IC50)
T5 construct: host or cells: human liver (from the name)
Protocol: as §1, §2, §3

[8] = test system: HCV replicon (strain 1b) in HUH-7 cells; experiment: HCV replicon FRET assay; format: cell-based; conditions: Hepatitis C virus
Text: An HCV replicon whole cell system was established as described by Lohmann V, Korner F, Koch J, Herian U, Theilmann L, Bartenschlager R., Science 285(5424):110-3 (1999). This system enabled us to evaluate the effects of our HCV Protease compounds on HCV RNA replication. Briefly, using the HCV strain 1b sequence described in the Lohmann paper (Assession number: AJ238799), an HCV cDNA was synthesized by Operon Technologies, Inc. (Alameda, Calif.), and the full-length replicon was then assembled in plasmid pGem9zf(+) (Promega, Madison, Wis.) using standard molecular biology techniques. The replicon consists of (i) the HCV 5′ UTR fused to the first 12 amino acids of the capsid protein, (ii) the neomycin phosphotransferase gene (neo), (iii) the IRES from encephalomyocarditis virus (EMCV), and (iv) HCV NS3 to NS5B genes and the HCV 3′ UTR. Plasmid DNAs were linearized with ScaI and RNA transcripts were synthesized in vitro using the T7 MegaScript transcription kit (Aibion, Austin, Tex.) according to manufacturer's directions. In vitro transcripts of the cDNA were transfected into the human hepatoma cell line, HUH-7. […] Resulting cell lines were characterized for positive and negative strand RNA production and protein production over time.
The HCV replicon FRET assay was developed to monitor the inhibitory effects of compounds described in the disclosure on NCV viral replication. HUH-7 cells, constitutively expressing the HCV replicon, were grown in Dulbecco's Modified Eagle Media (DMEM) (Gibco-BRL) containing 10% Fetal calf serum (FCS) (Sigma) and 1 mg/ml G418 (Gibco-BRL). Cells were seeded the night before (1.5×10^4 cells/well) in 96-well tissue-culture sterile plates. Compound and no compound controls were prepared in DMEM containing 4% FCS, 1:100 Penicillin/Streptomysin (Gibco-BRL), 1:100 L-glutamine and 5% DMSO in the dilution plate (0.5% DMSO final concentration in the assay). Compound/DMSO mixes were added to the cells and incubated for 4 days at 37° C. After 4 days, cells were first assessed for cytotoxicity using alamar Blue (Trek Diagnotstic Systems) for a CC50 reading. The toxicity of compound (CC50) was determined by adding 1/10th volume of alamar Blue to the media incubating the cells. After 4 h, the fluorescence signal from each well was read, with an excitation wavelength at 530 nm and an emission wavelength of 580 nm, using the Cytofluor Series 4000 (Perspective Biosystems). Plates were then rinsed thoroughly with Phosphate-Buffered Saline (PBS) (3 times 150 μl).

[9] = NS3/4A BMS strain, activity range, read-out: IC50 (range or value)
[10] = Huh-7, HCV replicon, activity range, read-out: EC50 (range or value)
[11] = NS3/4A BMS strain, value, read-out: IC50 (range or value)
[12] = Huh-7, HCV replicon, value, read-out: EC50 (range or value)

T2 sequence (P27958 1027-1657, stated change not applied, one chain of several): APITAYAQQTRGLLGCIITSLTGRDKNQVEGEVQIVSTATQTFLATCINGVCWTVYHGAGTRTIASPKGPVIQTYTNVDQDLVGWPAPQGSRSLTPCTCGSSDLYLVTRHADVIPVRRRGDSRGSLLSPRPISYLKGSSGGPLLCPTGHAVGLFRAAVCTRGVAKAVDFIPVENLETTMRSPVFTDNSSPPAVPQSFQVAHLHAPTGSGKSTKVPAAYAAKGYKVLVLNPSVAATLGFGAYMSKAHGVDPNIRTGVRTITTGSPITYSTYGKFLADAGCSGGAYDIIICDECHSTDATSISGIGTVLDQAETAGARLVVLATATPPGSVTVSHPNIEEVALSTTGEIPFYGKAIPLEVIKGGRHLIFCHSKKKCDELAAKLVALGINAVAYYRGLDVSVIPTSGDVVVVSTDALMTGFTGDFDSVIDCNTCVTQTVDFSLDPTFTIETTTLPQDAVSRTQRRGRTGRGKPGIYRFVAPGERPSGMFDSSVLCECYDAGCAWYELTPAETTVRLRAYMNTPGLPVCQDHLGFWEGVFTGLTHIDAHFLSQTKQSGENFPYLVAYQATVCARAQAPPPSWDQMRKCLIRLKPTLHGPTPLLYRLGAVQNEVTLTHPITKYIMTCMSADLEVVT
T1 sequence (P27958 1027-1711 C1454S/C1711G, one chain of several): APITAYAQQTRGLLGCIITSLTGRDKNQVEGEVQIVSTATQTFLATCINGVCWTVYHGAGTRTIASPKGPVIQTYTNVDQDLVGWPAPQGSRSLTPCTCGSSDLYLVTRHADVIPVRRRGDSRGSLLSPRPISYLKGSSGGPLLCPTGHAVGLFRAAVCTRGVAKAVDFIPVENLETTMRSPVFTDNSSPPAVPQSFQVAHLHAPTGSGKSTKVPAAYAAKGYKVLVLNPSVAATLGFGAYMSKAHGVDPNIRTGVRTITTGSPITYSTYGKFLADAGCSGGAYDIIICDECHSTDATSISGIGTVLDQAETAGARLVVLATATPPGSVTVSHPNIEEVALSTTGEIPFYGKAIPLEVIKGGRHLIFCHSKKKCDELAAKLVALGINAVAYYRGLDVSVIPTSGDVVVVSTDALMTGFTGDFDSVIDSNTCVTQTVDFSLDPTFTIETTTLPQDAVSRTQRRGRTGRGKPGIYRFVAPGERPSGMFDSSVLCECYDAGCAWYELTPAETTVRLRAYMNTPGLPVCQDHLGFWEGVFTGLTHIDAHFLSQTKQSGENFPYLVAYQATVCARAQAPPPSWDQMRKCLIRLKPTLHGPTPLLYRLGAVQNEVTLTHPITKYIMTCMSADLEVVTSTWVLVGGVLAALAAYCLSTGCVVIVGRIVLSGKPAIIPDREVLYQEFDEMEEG
T3 sequence (O92972 1027-1711 C1454S/C1711G, one chain of several): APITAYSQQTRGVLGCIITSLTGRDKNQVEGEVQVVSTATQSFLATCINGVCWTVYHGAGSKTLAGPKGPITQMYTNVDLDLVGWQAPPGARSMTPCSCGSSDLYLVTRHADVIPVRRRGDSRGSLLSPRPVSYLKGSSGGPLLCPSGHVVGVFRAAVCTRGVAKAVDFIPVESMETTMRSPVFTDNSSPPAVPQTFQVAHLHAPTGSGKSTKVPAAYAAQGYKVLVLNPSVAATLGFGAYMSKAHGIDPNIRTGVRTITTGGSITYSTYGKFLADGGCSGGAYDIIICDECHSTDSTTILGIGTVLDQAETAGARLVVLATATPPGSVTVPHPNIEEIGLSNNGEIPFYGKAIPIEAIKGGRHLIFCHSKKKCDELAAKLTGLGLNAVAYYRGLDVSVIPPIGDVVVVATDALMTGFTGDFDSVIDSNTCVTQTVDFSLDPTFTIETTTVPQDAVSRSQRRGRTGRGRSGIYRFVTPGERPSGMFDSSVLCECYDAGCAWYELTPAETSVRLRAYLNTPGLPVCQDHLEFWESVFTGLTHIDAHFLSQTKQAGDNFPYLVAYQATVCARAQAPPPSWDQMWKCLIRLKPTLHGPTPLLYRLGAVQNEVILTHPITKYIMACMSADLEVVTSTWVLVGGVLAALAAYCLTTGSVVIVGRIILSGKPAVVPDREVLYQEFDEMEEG
porcine pancreatic elastase (PPE), sequence (P00772 27-266): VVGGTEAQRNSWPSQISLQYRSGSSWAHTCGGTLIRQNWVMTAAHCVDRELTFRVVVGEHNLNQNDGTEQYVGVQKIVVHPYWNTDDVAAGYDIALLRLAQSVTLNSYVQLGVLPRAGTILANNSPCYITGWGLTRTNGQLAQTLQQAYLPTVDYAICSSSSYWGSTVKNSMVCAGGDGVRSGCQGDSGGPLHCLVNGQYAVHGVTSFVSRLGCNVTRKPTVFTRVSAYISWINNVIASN

With C=C[C@@H]1C[C@]1(NC(=O)[C@@H]1C[C@@H](OC(=O)N2Cc3cccc(F)c3C2)CN1C(=O)C(Nc1cc(C)cc(C)n1)C(C)C)C(=O)NS(=O)(=O)C1CC1 (single isomer, unassigned) [Compound 2A] the IC50 [1] was > 100000 nM, the IC50 [2] was 2100 nM and the IC50 [3] was 1.4 nM. For the same compound, the IC50 ([4]; BMS strain, read-out: IC50 against the NS3/4A BMS strain in the enzyme assay) was 8.9 nM, the IC50 [4, 9] was 4 to 20 nM and the IC50 [5] was 1.2 nM. For the same compound, the IC50 [6] was 4600 nM, the IC50 [7] was > 100000 nM and the EC50 [8, 10] was 14 to 100 nM. The EC50 ([8]; Huh-7, replicon FRET assay, read-out: EC50 value in the replicon FRET assay) was 69 nM.
For C=C[C@@H]1C[C@]1(NC(=O)C1CC(Oc2cc(-c3ccccc3)nc3cc(OC)ccc23)CN1C(=O)[C@@H](Nc1nc(C(C)(C)C)cs1)C(C)(C)C)C(=O)NS(=O)(=O)C1CC1 (stereo partly shown) [Compound 4], the IC50 [4, 9] was 4 to 20 nM and the EC50 [8, 10] was 14 to 100 nM.
C=C[C@@H]1C[C@]1(NC(=O)C1CC(Oc2cc(-c3ccccc3)nc3cc(OC)ccc23)CN1C(=O)[C@@H](Nc1nc(C(F)(F)F)cs1)C(C)(C)C)C(=O)NS(=O)(=O)C1CC1 (stereo partly shown) [Compound 5] was tested, and the IC50 [4, 9] was 4 to 20 nM and the EC50 [8, 10] was 14 to 100 nM.
For C=C[C@@H]1C[C@]1(NC(=O)[C@@H]1C[C@@H](Oc2cc(-c3cccs3)cc(-c3ccccc3)n2)CN1C(=O)C(Nc1cc(C)cc(C)n1)C(C)C)C(=O)NS(=O)(=O)C1CC1 (single isomer, unassigned) [Compound 1A], the IC50 [4, 11] was 14 nM and the EC50 [8, 12] was 65.3 nM.
With C=C[C@@H]1C[C@]1(NC(=O)C1CC(Oc2cc(-c3ccccc3)nc3cc(OC)ccc23)CN1C(=O)[C@@H](Nc1nc(CC)cs1)C(C)(C)C)C(=O)NS(=O)(=O)C1CC1 (stereo partly shown) [Compound 3] the IC50 [4, 11] was 4.55 nM and the EC50 [8, 12] was 14.6 nM.
In the case of C=C[C@@H]1C[C@]1(NC(=O)[C@@H]1C[C@@H](OC(=O)N2Cc3cccc(F)c3C2)CN1C(=O)C(Nc1cc(C)cc(C)n1)C(C)C)C(=O)NS(=O)(=O)C1CC1 (single isomer, unassigned) [Compound 2B], the IC50 [4, 11] is reported as 135 nM and the EC50 [8, 12] is reported as 3480 nM.
Work on C=C[C@@H]1C[C@]1(NC(=O)[C@@H]1C[C@@H](Oc2cc(-c3cccs3)cc(-c3ccccc3)n2)CN1C(=O)C(Nc1cc(C)cc(C)n1)C(C)C)C(=O)NS(=O)(=O)C1CC1 (single isomer, unassigned) [Compound 1B] yielded an IC50 [4, 9] of 20 to 200 nM and an EC50 [8, 10] of 100 to 1000 nM.
